# Test results: patent US20260200946A1, “KRAS(G12V) INHIBITORS” (Ranok Therapeutics (Hangzhou) Co. Ltd., priority 2022, published 2026)
# System: NCIH727 cells
# Assay: Cancer cell line proliferation (CellTiter-Glo), NCI-H727
# Type: cell-based
# Conditions: Homo sapiens, 72 h, NCIH727 lung carcinoid, heterozygous G12V
# Description: Cell lines were cultured essentially according to ATCC recommendations.
# SW620 and NCIH727 cells were plated in 384-well tissue culture plates at 1,000 cells/well and incubated at 37° C./5% CO2 for 72 hr in 40 μl of media. […] Each cell line was then treated with test compounds at various concentrations with a final concentration of 0.5% DMSO/well, and then incubated at 37° C./5% CO2 for 72 hr. 40 μl of CellTiter-Glo® Reagent (Promega Corporation, Madison, WI) was added to each well and processed according manufacturer's protocol. Results were analyzed and IC50 values were calculated in GraphPad 8.0 software.
row,Structure (SMILES),EC50
1,C#Cc1c(F)ccc2cc(O)cc(-c3nc(OC)c4c(N5CC6CCC(C5)N6C(=O)N[C@H]5C[C@H]5F)nc(OCC5(CN6CCC(F)CC6)CC5)nc4c3F)c12 [Example 68],> 1000 nM
2,C#Cc1c(F)ccc2cc(O)cc(-c3nc(OC)c4c(N5CC6CCC(C5)N6C(=O)N(C)CC(F)(F)F)nc(OCC5(CN6CC7CC7C6)CC5)nc4c3F)c12 (centres unmarked) [Example 159],100 to 1000 nM
3,[2H]C([2H])([2H])Oc1nc(-c2cc(O)cc3ccc(F)c(C#C)c23)c(F)c2nc(OCC3(CN4CC5CC5C4)CC3)nc(N3CC4CCC(C3)N4C(=O)C(C#N)CC(F)(F)F)c12 (centres unmarked) [Example 125],100 to 1000 nM
4,C#Cc1c(F)ccc2cc(O)cc(-c3nc(OC)c4c(N5CC6CCC(C5)N6C(=O)[C@H]5CC5(F)F)nc(OCC5(CN6CCC(F)CC6)CC5)nc4c3F)c12 [Example 69],< 100 nM
5,C#Cc1c(F)ccc2cc(O)cc(-c3nc(OC)c4c(N5CC6CCC(C5)N6C(=O)C(CC#N)CC#N)nc(OCC5(CN6CC7CC7C6)CC5)nc4c3F)c12 (centres unmarked) [Example 131],100 to 1000 nM
6,C#Cc1c(F)ccc2cc(O)cc(-c3nc(OC)c4c(N5CC6CCC(C5)N6C(=O)N[C@H]5C[C@H](C#N)C5)nc(OCC5(CN6CC7CC7C6)CC5)nc4c3F)c12 (some centres unmarked) [Example 191],100 to 1000 nM
7,C#Cc1c(F)ccc2cc(O)cc(-c3nc(OC)c4c(N5CC6CCC(C5)N6C(=O)N[C@H]5CCC(F)(F)C5)nc(OCC5(CN6CCC(F)CC6)CC5)nc4c3F)c12 [Example 81],< 100 nM
8,C#Cc1c(F)ccc2cc(O)cc(-c3nc(OC)c4c(N5CC6CCC(C5)N6C(=O)CC(C)=O)nc(OCC5(CN6CC7CC7C6)CC5)nc4c3F)c12 (centres unmarked) [Example 122],100 to 1000 nM
9,C#Cc1c(F)ccc2cc(O)cc(-c3nc(OC)c4c(N5CC6CCC(C5)N6C(=O)OCC)nc(OCC5(CN6CC7CC7C6)CC5)nc4c3F)c12 (centres unmarked) [Example 164],100 to 1000 nM
10,C#Cc1c(F)ccc2cc(O)cc(-c3nc(OC)c4c(N5CC6CCC(C5)N6C(=O)NC(C#N)C(N)=O)nc(OCC5(CN6CC7CC7C6)CC5)nc4c3F)c12 (centres unmarked) [Example 189],> 1000 nM
11,C#Cc1c(F)ccc2cc(O)cc(-c3nc(OC)c4c(N5CC6CCC(C5)N6C(=O)[C@@H]5CC5(F)F)nc(OCC5(CN6CCC(F)CC6)CC5)nc4c3F)c12 [Example 72],100 to 1000 nM
12,C#Cc1c(F)ccc2cc(O)cc(-c3nc(OC)c4c(N5CC6CCC(C5)N6C(=O)NNC)nc(OCC5(CN6CC7CC7C6)CC5)nc4c3F)c12 (centres unmarked) [Example 182],100 to 1000 nM
13,C#Cc1c(F)ccc2cc(O)cc(-c3nc(OC)c4c(N5CC6CCC(C5)N6C(=O)CCN(C)OC)nc(OCC5(CN6CC7CC7C6)CC5)nc4c3F)c12 (centres unmarked) [Example 168],100 to 1000 nM
14,C#Cc1c(F)ccc2cc(O)cc(-c3nc(OC)c4c(N5CC6CCC(C5)N6C(=O)NC5(C#N)CCC5)nc(OCC5(CN6CC7CC7C6)CC5)nc4c3F)c12 (centres unmarked) [Example 197],< 100 nM
15,C#Cc1c(F)ccc2cc(O)cc(-c3nc(OC)c4c(N5CC6CCC(C5)N6C(=O)C5(C#N)CC5)nc(OCC5(CN6CC7CC7C6)CC5)nc4c3F)c12 (centres unmarked) [Example 115],100 to 1000 nM
16,C#Cc1c(F)ccc2cc(O)cc(-c3nc(OC)c4c(N5CC6CCC(C5)N6C(=O)NCC(O)C(F)(F)F)nc(OCC5(CN6CC7CC7C6)CC5)nc4c3F)c12 (centres unmarked) [Example 187],100 to 1000 nM
17,C#Cc1c(F)ccc2cc(O)cc(-c3nc(OC)c4c(N5CC6CCC(C5)N6C(=O)NC5CC[C@@H](F)C5)nc(OCC5(CN6CCC(F)CC6)CC5)nc4c3F)c12 (some centres unmarked) [Example 87],100 to 1000 nM
18,Cc1cc(N)nc(-c2c(Cl)cc3c(N4CC5CCC(C4)N5C(=O)CCOC(F)(F)F)nc(OCC4(CN5CC6CC6C5)CC4)nc3c2F)c1C(F)(F)F (centres unmarked) [Example 174],> 1000 nM
19,C#Cc1c(F)ccc2cc(O)cc(-c3nc(OC)c4c(N5CC6CCC(C5)N6C(=O)NC5CC5(F)F)nc(OCC5(CN6CCC(F)CC6)CC5)nc4c3F)c12 (centres unmarked) [Example 86],100 to 1000 nM
20,C#Cc1c(F)ccc2cc(O)cc(-c3nc(OC)c4c(N5CC6CCC(C5)N6C(=O)C56CC(F)(C5)C6)nc(OCC5(CN6CC7CC7C6)CC5)nc4c3F)c12 (centres unmarked) [Example 185],100 to 1000 nM
21,C#Cc1c(F)ccc2cc(O)cc(-c3nc(OC)c4c(N5CC6CCC(C5)N6C(=O)CC(C)(C)C#N)nc(OCC5(CN6CC7CC7C6)CC5)nc4c3F)c12 (centres unmarked) [Example 148],< 100 nM
22,C#Cc1c(F)ccc2cc(O)cc(-c3nc(OC)c4c(N5CC6CCC(C5)C6C(=O)NCC(F)(F)F)nc(OCC5(CN6CC7CC7C6)CC5)nc4c3F)c12 (centres unmarked) [Example 170],> 1000 nM
23,C#Cc1c(F)ccc2cc(O)cc(-c3nc(OC)c4c(N5CC6CCC(C5)N6C(=O)C(C)C#N)nc(OCC5(CN6CC7CC7C6)CC5)nc4c3F)c12 (centres unmarked) [Example 123],100 to 1000 nM
24,C#Cc1c(F)ccc2cc(O)cc(-c3nc(OC)c4c(N5CC6CCC(C5)N6CC5COC5)nc(OCC5(CN6CCC(F)CC6)CC5)nc4c3F)c12 [Example 70],> 1000 nM
25,C#Cc1c(F)ccc2cc(O)cc(-c3nc(OC)c4c(N5CC6CCC(C5)N6C(=O)NCC)nc(OCC5(CN6CC7CC7C6)CC5)nc4c3F)c12 (centres unmarked) [Example 144],100 to 1000 nM

row,Structure (SMILES),EC50
1,C#Cc1c(F)ccc2cc(O)cc(-c3nc(OC)c4c(N5CC6CCC(C5)N6C(=O)OCC#N)nc(OCC5(CN6CC7CC7C6)CC5)nc4c3F)c12 (centres unmarked) [Example 161],< 100 nM
2,C#Cc1c(F)ccc2cc(O)cc(-c3nc(OC)c4c(N5CC6CCC(C5)N6C(=O)NC56CC(C#N)(C5)C6)nc(OCC5(CN6CC7CC7C6)CC5)nc4c3F)c12 (centres unmarked) [Example 194],100 to 1000 nM
3,C#Cc1c(F)ccc2cc(O)cc(-c3nc(OC)c4c(N5CC6CCC(C5)N6C(=O)CCOC)nc(OCC5(CN6CC7CC7C6)CC5)nc4c3F)c12 (centres unmarked) [Example 108],100 to 1000 nM
4,C#Cc1c(F)ccc2cc(O)cc(-c3nc(OC)c4c(N5CC6CCC(C5)N6C(=O)NC56CC(C(F)(F)F)(C5)C6)nc(OCC5(CN6CC7CC7C6)CC5)nc4c3F)c12 (centres unmarked) [Example 184],100 to 1000 nM
5,C#Cc1c(F)ccc2cc(O)cc(-c3nc(OC)c4c(N5CC6CCC(C5)N6C(=O)N5CC(OC(F)(F)F)C5)nc(OCC5(CN6CC7CC7C6)CC5)nc4c3F)c12 (centres unmarked) [Example 175],100 to 1000 nM
6,C#Cc1c(F)ccc2cc(N)cc(-c3nc(OC)c4c(N5CC6CCC(C5)N6C(=S)NC(C)C#N)nc(OCC5(CN6CC7CC7C6)CC5)nc4c3F)c12 (centres unmarked) [Example 166],> 1000 nM
7,C#Cc1c(F)ccc2cc(O)cc(-c3nc(OC)c4c(N5CC6CCC(C5)N6C(=O)CC(C)C(F)(F)F)nc(OCC5(CN6CC7CC7C6)CC5)nc4c3F)c12 (centres unmarked) [Example 181],100 to 1000 nM
8,C#CCC(C#N)C(=O)N1C2CCC1CN(c1nc(OCC3(CN4CC5CC5C4)CC3)nc3c(F)c(-c4cc(O)cc5ccc(F)c(C#C)c45)nc(OC)c13)C2 (centres unmarked) [Example 146],100 to 1000 nM
9,C#Cc1c(F)ccc2cc(O)cc(-c3nc(OC)c4c(N5CC6CCC(C5)N6C(=O)C5CC(F)(F)C5(F)F)nc(OCC5(CN6CC7CC7C6)CC5)nc4c3F)c12 (centres unmarked) [Example 167],> 1000 nM
10,C#Cc1c(F)ccc2cc(O)cc(-c3nc(OC)c4c(N5CCN(C(=O)CC#N)[C@@H](CC#N)C5)nc(OCC5(CN6CC7CC7C6)CC5)nc4c3F)c12 (some centres unmarked) [Example 117],> 1000 nM
11,C#Cc1c(F)ccc2cc(O)cc(-c3nc(OC)c4c(N5CC6CCC(C5)N6C(=O)[C@H]5C[C@@H]5F)nc(OCC5(CN6CCC(F)CC6)CC5)nc4c3F)c12 [Example 78],100 to 1000 nM
12,C#Cc1c(F)ccc2cc(O)cc(-c3nc(OC)c4c(N5CC6CCC(C5)N6C(=O)NC5CN(C)C5)nc(OCC5(CN6CC7CC7C6)CC5)nc4c3F)c12 (centres unmarked) [Example 158],> 1000 nM
13,C#Cc1c(F)ccc2cc(O)cc(-c3nc(OC)c4c(N5CC6CCC(C5)N6C(=O)C5C6CCOC65)nc(OCC5(CN6CC7CC7C6)CC5)nc4c3F)c12 (centres unmarked) [Example 155],< 100 nM
14,C#Cc1c(F)ccc2cc(O)cc(-c3nc(OC)c4c(N5CC6CCC(C5)N6C(=O)C(C#N)CC)nc(OCC5(CN6CC7CC7C6)CC5)nc4c3F)c12 (centres unmarked) [Example 126],100 to 1000 nM
15,C#Cc1c(F)ccc2cc(O)cc(-c3nc(OC)c4c(N5CC6CCC(C5)N6C(=O)NC5CC(C#N)C5)nc(OCC5(CN6CC7CC7C6)CC5)nc4c3F)c12 (centres unmarked) [Example 145],100 to 1000 nM
16,C#Cc1c(F)ccc2cc(O)cc(-c3nc(OC)c4c(N5CC6CCC(C5)N6C(=O)NC5(C#N)COC5)nc(OCC5(CN6CC7CC7C6)CC5)nc4c3F)c12 (centres unmarked) [Example 196],100 to 1000 nM
17,C#Cc1c(F)ccc2cc(O)cc(-c3nc(OC)c4c(N5CC6CCC(C5)N6C(C)C)nc(OCC5(CN6CC7CC7C6)CC5)nc4c3F)c12 (centres unmarked) [Example 121],> 1000 nM
18,C#Cc1c(F)ccc2cc(O)cc(-c3nc(OC)c4c(N5CC6CCC(C5)N6C(=O)NC5COC5)nc(OCC5(CN6CC7CC7C6)CC5)nc4c3F)c12 (centres unmarked) [Example 199],< 100 nM
19,C#CCNC(=O)N1C2CCC1CN(c1nc(OCC3(CN4CCC(F)CC4)CC3)nc3c(F)c(-c4cc(O)cc5ccc(F)c(C#C)c45)nc(C#C)c13)C2 [Example 96],100 to 1000 nM
20,C#Cc1c(F)ccc2cc(O)cc(-c3nc(OC)c4c(N5CC6CCC(C5)N6C(=O)N[C@@H]5C[C@H]5F)nc(OCC5(CN6CCC(F)CC6)CC5)nc4c3F)c12 [Example 73],100 to 1000 nM
21,C#Cc1c(F)ccc2cc(O)cc(-c3nc(OC)c4c(N5CC6CCC(C5)N6C(=O)NCC(F)(F)F)nc(OCC5(CN6CCC(C(F)(F)F)CC6)CC5)nc4c3F)c12 [Example 136],< 100 nM
22,C#Cc1c(F)ccc2cc(O)cc(-c3nc(OC)c4c(N5CC6CCC(C5)N6C(=O)c5cocn5)nc(OCC5(CN6CC7CC7C6)CC5)nc4c3F)c12 (centres unmarked) [Example 153],100 to 1000 nM
23,C#Cc1c(F)ccc2cc(O)cc(-c3nc(OC)c4c(N5CC6CCC(C5)N6C(=O)C5C[C@H]5F)nc(OCC5(CN6CCC(F)CC6)CC5)nc4c3F)c12 (some centres unmarked) [Example 77],< 100 nM
24,C#Cc1c(F)ccc2cc(O)cc(-c3nc(OC)c4c(N5CC6CCC(C5)N6C(=O)NC(C#N)C5CC5)nc(OCC5(CN6CC7CC7C6)CC5)nc4c3F)c12 (centres unmarked) [Example 192],100 to 1000 nM

# Same assay, conditions: NCIH727 lung carcinoid, heterozygous G12V, 72 hr
row,Structure (SMILES),EC50
1,C#Cc1c(F)ccc2cc(O)cc(-c3nc(OC)c4c(N5CC6CCC(C5)N6C(=O)C5C[C@H]5C#N)nc(OCC5(CN6CCC(F)CC6)CC5)nc4c3F)c12 (some centres unmarked) [Example 84],< 100 nM
